Test results: article PMC9202051 (ACS Omega, 2022)
Read-outs that look alike come from different tables or passages of the source.

How the values were obtained:
soybean 15-LOX = target: T1, soybean 15-LOX (Glycine max, UniProt P08170); assay: soybean 15-LOX inhibition assay; format: biochemical; conditions: for inhibition at 250 µM: read-out: inhibition (%) at 0.25 mM
T1 sequence (P08170 1-839): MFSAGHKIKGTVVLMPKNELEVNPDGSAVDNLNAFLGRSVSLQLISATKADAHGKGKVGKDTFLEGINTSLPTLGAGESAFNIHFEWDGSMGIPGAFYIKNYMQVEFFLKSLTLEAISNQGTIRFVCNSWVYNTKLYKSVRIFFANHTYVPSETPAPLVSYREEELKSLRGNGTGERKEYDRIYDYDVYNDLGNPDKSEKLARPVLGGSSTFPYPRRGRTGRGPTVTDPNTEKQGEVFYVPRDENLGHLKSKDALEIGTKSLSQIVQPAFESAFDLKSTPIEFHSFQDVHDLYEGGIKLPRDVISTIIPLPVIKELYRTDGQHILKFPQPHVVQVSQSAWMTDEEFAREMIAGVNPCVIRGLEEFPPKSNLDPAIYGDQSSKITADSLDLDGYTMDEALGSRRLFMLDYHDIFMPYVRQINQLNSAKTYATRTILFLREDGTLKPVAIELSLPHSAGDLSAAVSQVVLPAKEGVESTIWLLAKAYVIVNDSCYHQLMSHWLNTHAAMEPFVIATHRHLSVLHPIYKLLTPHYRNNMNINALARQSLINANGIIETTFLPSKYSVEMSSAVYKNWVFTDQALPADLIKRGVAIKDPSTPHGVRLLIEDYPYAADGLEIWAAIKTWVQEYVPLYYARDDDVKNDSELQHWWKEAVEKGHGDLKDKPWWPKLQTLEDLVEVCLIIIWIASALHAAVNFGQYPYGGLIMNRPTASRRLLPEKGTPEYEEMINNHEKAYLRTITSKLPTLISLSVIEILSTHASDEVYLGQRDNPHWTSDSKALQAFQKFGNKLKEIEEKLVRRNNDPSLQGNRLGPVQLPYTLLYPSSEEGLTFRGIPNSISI

[1] = tested on: blood mononuclear cells (MNCs); assay: MTT cell viability assay; format: cell-based, human; conditions: MTT assay, 0.25 mM, mononuclear cells; mean ± SEM, n = 3
MTT cell viability assay = format: cell-based, human; conditions: human, blood mononuclear cells (MNCs)

Row | IC50 (soybean 15-LOX) | inhibition at 250 µM (soybean 15-LOX) | Compound | viability at 0.25 mM (MTT cell viability assay) | other results
1 | – | – | 2-((5-(4-Chlorophenyl)-4-(furan-2-ylmethyl)-4H-1,2,4-triazol-3-yl)thio)-N-(m-tolyl) Methylacetamide [Compound 7f] | – | inhibition (%) at 0.25 mM (soybean 15-LOX; 0.25 mM, mean ± SEM, n = 3): 82.13 ± 1.85%; IC50 (soybean 15-LOX; mean ± SEM, n = 3): 45.4 ± 0.72 µM; cell viability (%) at 0.25 mM [1]: 90.21 ± 1.2%
2 | 26.3 ± 0.62 µM | 89.3 ± 1.55% | CCCNC(=O)C(C)Sc1nnc(-c2ccc(Cl)cc2)n1Cc1ccco1 (stereo not shown) [Compound 7b, 2-((5-(4-Chlorophenyl)-4-(furan-2-ylmethyl)-4H-1,2,4-triazol-3-yl)thio)-N-n-propylmethylacetamide] | 90.1 ± 1.1% | –
3 | 2.24 ± 0.13 µM | – | O=c1cc(-c2ccccc2)oc2cc(O)c(O)c(O)c12 [baicalein, reference compound] | – | –
4 | – | – | COc1cc(/C=C/C(=O)CC(=O)/C=C/c2ccc(O)c(OC)c2)ccc1O [curcumin, reference compound] | 73.9 ± 1.5% | –
5 | – | – | O=P1(N(CCCl)CCCl)NCCCO1 (stereo not shown) [cyclophosphamide, reference compound] | 56.5 ± 1.9% | –
6 | – | 92.6 ± 1.24% | O=c1c(O)c(-c2ccc(O)c(O)c2)oc2cc(O)cc(O)c12 [quercetin, reference compound] | – | –
